Molecular target: HIV-1 reverse transcriptase (RT35A, wild type) (Human immunodeficiency virus type 1 group M subtype B, UniProt P03366)
Assay: JDAM dual activity monitor RT activity assay
Assay type: biochemical
Details: for ligand efficiency: LE = -RTln(IC50)/NHA

| SMILES | ligand efficiency [kcal/mol●NHA] | inhibition (in words) (at 1 mM, JDAM assay) |
| --- | --- | --- |
| CCOC(=O)c1cnn2ccccc12 [compound 1, ethyl pyrazolo[1,5-a]pyridine-3-carboxylate] | 0.34 |  |
| Oc1ccc(OC(F)(F)F)cc1 [compound 3, 4-(trifluoromethoxy)phenol] | 0.37 |  |
| NCc1ccc(OC(F)(F)F)cc1 [compound 2, 4-(trifluoromethoxy)benzylamine] |  | no detectable inhibition |
| CN(CC(=O)N1CCCc2ccccc21)Cc1nc(=O)c2ccccc2[nH]1 [compound 8, 2-(((2-(3,4-dihydroquinolin-1(2H)-yl)-2-oxoethyl)(methyl)amino)methyl)quinazolin-4(1H)-one] | 0.19 |  |
